Test results published in patent US20210169824A1, “USE OF CANNABINOIDS IN THE TREATMENT OF SEIZURES AS ASSOCIATED WITH LENNOX-GASTAUT SYNDROME” (GW Research Limited, priority 2017, published 2021).

Columns and labels:
[1] = patients with epilepsy, open label study, Gaston et al. 2017; cited from earlier work
[2] = test system: seizures associated with Lennox-Gastaut syndrome (LGS) in treatment-resistant patients; assay: Pooled analysis of two randomised, double-blind, placebo-controlled 14-week studies of add-on cannabidiol in LGS patients deemed AED treatment failures; format: in vivo, human; settings: for Total Seizure Frequency, Treatment Difference vs. Placebo / Drop Seizure Frequency, Treatment Difference vs. Placebo: Hodges-Lehmann estimated median difference; for Drop Seizure Frequency, Median % Change During Treatment / Total Seizure Frequency, Median % Change During Treatment: from baseline
Source text: In two placebo-controlled studies of CBD as a treatment for seizures associated with LGS, cannabidiol was used as add-on treatment in patients who were defined as treatment-resistant. Patients had previously tried and stopped using a median of 6 AEDs, and were being maintained on a median of 3 AEDs.
The first study was a 1:1 randomised, double-blind, 14-week comparison of cannabidiol oral solution (CBD-OS) versus placebo. The treatment period consisted of a two-week titration period followed by a 12-week maintenance period. The treatment period was followed by a 10-day taper period and a four-week follow-up period. The study aimed to determine the efficacy, safety and tolerability of 20 mg/kg/day cannabidiol compared with placebo.
The second study was a 1:1:1 randomised, double-blind, 14-week comparison of two dose levels of cannabidiol (10 mg/kg/day and 20 mg/kg/day) versus placebo. The treatment period consisted of a two-week titration period followed by a 12-week maintenance period. The treatment period was followed by a 10-day taper period and a four-week follow-up period. The study aimed to determine the efficacy, safety and tolerability of two dose levels of CBD-OS compared with placebo. Patients in the placebo group were split into two equivalent cohorts; half receiving 10 mg/kg/day dosing volumes and half receiving 20 mg/kg/day dosing volumes.
In order to ensure that caregivers were able to interpret a seizure correctly, all caregivers underwent pre-study training, and their description and classification of a seizure was independently verified by a committee appointed by the Epilepsy Study Consortium
Despite the number of medications, the patients were already taking, the median number of drop seizures at baseline was in excess of 75 per month in both studies. These were patient populations with a high unmet medical need, who had already tried and failed multiple AEDs. In many cases, the AEDs they were being maintained on included those approved for the treatment of LGS; rufinamide, lamotrigine or topiramate.
An analysis of the change in seizure frequency for CBD vs placebo in patients who were currently taking, or had previously taken and stopped, each of rufinamide, lamotrigine or topiramate; felbamate was undertaken. Such patients can be reasonably defined as AED treatment failures.

[3] = Felbamate treatment failures, 10 mg/kg/day, N = 22
[4] = Felbamate treatment failures, 10 mg/kg/day, N = 22, P-value 0.1921 vs placebo
[5] = Felbamate treatment failures, 20 mg/kg/day, N = 38
[6] = Felbamate treatment failures, 20 mg/kg/day, N = 38, P-value 0.0068 vs placebo
[7] = Lamotrigine treatment failures, 10 mg/kg/day, N = 49
[8] = Lamotrigine treatment failures, 10 mg/kg/day, N = 49, P-value 0.0131 vs placebo
[9] = Lamotrigine treatment failures, 20 mg/kg/day, N = 114
[10] = Lamotrigine treatment failures, 20 mg/kg/day, N = 114, P-value <0.0001 vs placebo
[11] = Rufinamide treatment failures, 10 mg/kg/day, N = 47
[12] = Rufinamide treatment failures, 10 mg/kg/day, N = 47, P-value 0.1836 vs placebo
[13] = Rufinamide treatment failures, 20 mg/kg/day, N = 95
[14] = Rufinamide treatment failures, 20 mg/kg/day, N = 95, P-value 0.0011 vs placebo
[15] = Topiramate treatment failures, 10 mg/kg/day, N = 56
[16] = Topiramate treatment failures, 10 mg/kg/day, N = 56, P-value 0.0517 vs placebo
[17] = Topiramate treatment failures, 20 mg/kg/day, N = 111
[18] = Topiramate treatment failures, 20 mg/kg/day, N = 111, P-value 0.0016 vs placebo
[19] = felbamate treatment failures, 20 mg/kg dose
[20] = lamotrigine treatment failures, both doses (10 and 20 mg/kg/day)
[21] = rufinamide treatment failures, 20 mg/kg/day dose

For `C=C(C)[C@@H]1CCC(C)=C[C@H]1c1c(O)cc(CCCCC)cc1O` [Cannabidiol], the “serum levels of some AEDs in the presence of CBD” value [1] is listed as “increased”, the “reduction in drop and total seizure frequency in patients deemed to be treatment failures” value ([2]; CBD combined with rufinamide, lamotrigine, topiramate or felbamate) is listed as “statistically significant reduction” and the “Total Seizure Frequency, Treatment Difference vs. Placebo” value ([2]; Felbamate treatment failures, 10 mg/kg/day, P-value 0.0282) is listed as −21.77%. The “Drop Seizure Frequency, Treatment Difference vs. Placebo” value ([2]; Felbamate treatment failures, 10 mg/kg/day, P-value 0.2984) was −11.57%, the “Drop Seizure Frequency, Treatment Period Median” value [2, 3] was 68.26 per 28 Days and the “Total Seizure Frequency, Treatment Period Median” value [2, 3] was 103.09 per 28 Days. The “Number of Responders, ≥50% Reduction in Drop Seizure Frequency from Baseline” value (from here on “Number of Responders, ≥50% Reduction”) [2, 4] was 6, the “Responders (%), ≥50% Reduction in Drop Seizure Frequency from Baseline” value (“Responders (%), ≥50% Reduction” below) [2, 4] was 27.3% and the “Drop Seizure Frequency, Median % Change During Treatment” value [2, 3] was −30.50%. The “Total Seizure Frequency, Median % Change During Treatment” value [2, 3] was −34.36%, the “Drop Seizure Frequency, Treatment Difference vs. Placebo” value ([2]; Felbamate treatment failures, 20 mg/kg/day, P-value 0.0930) was −17.76% and the “Total Seizure Frequency, Treatment Difference vs. Placebo” value ([2]; Felbamate treatment failures, 20 mg/kg/day, P-value 0.1179) was −14.58%. For the same compound, the “Drop Seizure Frequency, Treatment Period Median” value [2, 5] was 47.32 per 28 Days, the “Total Seizure Frequency, Treatment Period Median” value [2, 5] was 102.20 per 28 Days and the “Number of Responders, ≥50% Reduction” value [2, 6] was 15. For the same compound, the “Responders (%), ≥50% Reduction” value [2, 6] was 39.5%, the “Drop Seizure Frequency, Median % Change During Treatment” value [2, 5] was −31.62% and the “Total Seizure Frequency, Median % Change During Treatment” value [2, 5] was −27.56%. The “Drop Seizure Frequency, Treatment Difference vs. Placebo” value ([2]; Lamotrigine treatment failures, 10 mg/kg/day, P-value 0.0040) was −18.79%, the “Total Seizure Frequency, Treatment Difference vs. Placebo” value ([2]; Lamotrigine treatment failures, 10 mg/kg/day, P-value 0.0044) was −19.63% and the “Drop Seizure Frequency, Treatment Period Median” value [2, 7] was 40.29 per 28 Days. The “Total Seizure Frequency, Treatment Period Median” value [2, 7] was 68.41 per 28 Days, the “Number of Responders, ≥50% Reduction” value [2, 8] was 17 and the “Responders (%), ≥50% Reduction” value [2, 8] was 34.7%. The “Drop Seizure Frequency, Median % Change During Treatment” value [2, 7] was −37.16%, the “Total Seizure Frequency, Median % Change During Treatment” value [2, 7] was −32.87% and the “Total Seizure Frequency, Treatment Difference vs. Placebo” value ([2]; Lamotrigine treatment failures, 20 mg/kg/day, P-value 0.0008) was −17.35%. The “Drop Seizure Frequency, Treatment Difference vs. Placebo” value ([2]; Lamotrigine treatment failures, 20 mg/kg/day, P-value 0.0023) was −19.24%, the “Drop Seizure Frequency, Treatment Period Median” value [2, 9] was 36.30 per 28 Days and the “Total Seizure Frequency, Treatment Period Median” value [2, 9] was 98.64 per 28 Days. For the same compound, the “Number of Responders, ≥50% Reduction” value [2, 10] was 47, the “Responders (%), ≥50% Reduction” value [2, 10] was 41.2% and the “Drop Seizure Frequency, Median % Change During Treatment” value [2, 9] was −40.74%. For the same compound, the “Total Seizure Frequency, Median % Change During Treatment” value [2, 9] was −34.44%, the “Total Seizure Frequency, Treatment Difference vs. Placebo” value ([2]; Rufinamide treatment failures, 10 mg/kg/day, P-value 0.0062) was −17.54% and the “Drop Seizure Frequency, Treatment Difference vs. Placebo” value ([2]; Rufinamide treatment failures, 10 mg/kg/day, P-value 0.1314) was −9.80%. For the same compound, the “Drop Seizure Frequency, Treatment Period Median” value [2, 11] was 56.00 per 28 Days, the “Total Seizure Frequency, Treatment Period Median” value [2, 11] was 95.51 per 28 Days and the “Number of Responders, ≥50% Reduction” value [2, 12] was 13. For the same compound, the “Responders (%), ≥50% Reduction” value [2, 12] was 27.7%, the “Drop Seizure Frequency, Median % Change During Treatment” value [2, 11] was −32.95% and the “Total Seizure Frequency, Median % Change During Treatment” value [2, 11] was −31.25%. The “Total Seizure Frequency, Treatment Difference vs. Placebo” value ([2]; Rufinamide treatment failures, 20 mg/kg/day, P-value 0.0008) was −19.43%, the “Drop Seizure Frequency, Treatment Difference vs. Placebo” value ([2]; Rufinamide treatment failures, 20 mg/kg/day, P-value 0.0022) was −19.34% and the “Drop Seizure Frequency, Treatment Period Median” value [2, 13] was 42.30 per 28 Days. For the same compound, the “Total Seizure Frequency, Treatment Period Median” value [2, 13] was 102.20 per 28 Days, the “Number of Responders, ≥50% Reduction” value [2, 14] was 37 and the “Responders (%), ≥50% Reduction” value [2, 14] was 38.9%. For the same compound, the “Drop Seizure Frequency, Median % Change During Treatment” value [2, 13] was −38.78%, the “Total Seizure Frequency, Median % Change During Treatment” value [2, 13] was −34.90% and the “Total Seizure Frequency, Treatment Difference vs. Placebo” value ([2]; Topiramate treatment failures, 10 mg/kg/day, P-value 0.0047) was −17.04%. For the same compound, the “Drop Seizure Frequency, Treatment Difference vs. Placebo” value ([2]; Topiramate treatment failures, 10 mg/kg/day, P-value 0.0074) was −16.92%, the “Drop Seizure Frequency, Treatment Period Median” value [2, 15] was 57.02 per 28 Days and the “Total Seizure Frequency, Treatment Period Median” value [2, 15] was 88.31 per 28 Days. For the same compound, the “Number of Responders, ≥50% Reduction” value [2, 16] was 17, the “Responders (%), ≥50% Reduction” value [2, 16] was 30.4% and the “Drop Seizure Frequency, Median % Change During Treatment” value [2, 15] was −36.08%. The “Total Seizure Frequency, Median % Change During Treatment” value [2, 15] was −31.57%, the “Total Seizure Frequency, Treatment Difference vs. Placebo” value ([2]; Topiramate treatment failures, 20 mg/kg/day, P-value 0.0034) was −15.87% and the “Drop Seizure Frequency, Treatment Difference vs. Placebo” value ([2]; Topiramate treatment failures, 20 mg/kg/day, P-value 0.0069) was −16.83%. The “Drop Seizure Frequency, Treatment Period Median” value [2, 17] was 44.00 per 28 Days, the “Total Seizure Frequency, Treatment Period Median” value [2, 17] was 101.71 per 28 Days and the “Number of Responders, ≥50% Reduction” value [2, 18] was 40. The “Responders (%), ≥50% Reduction” value [2, 18] was 36.0%, the “Drop Seizure Frequency, Median % Change During Treatment” value [2, 17] was −34.13% and the “Total Seizure Frequency, Median % Change During Treatment” value [2, 17] was −33.76%. The “proportion of patients with a 50% reduction in drop seizure frequency compared with placebo” value [2, 19] was “statistically significantly greater proportion”, the “reduction in drop seizure frequency compared with placebo” value [2, 19] was “marginally statistically significantly greater reduction” and the “proportion of patients with a 50% reduction in drop seizure frequency compared with placebo” value [2, 20] was “significantly greater proportion”. The “reduction in both drop and total seizure frequency compared with placebo” value [2, 20] was “significantly greater reduction”, the “benefit in patients taking without seizure control, or having stopped, the AEDs authorised for LGS in the EU” value ([2]; pooled data from two studies, effect most significant at 20 mg/kg/day) was “significant benefit” and the “proportion of patients with a 50% reduction in drop seizure frequency compared with placebo” value [2, 21] was “significantly greater proportion”. For the same compound, the “reduction in drop and total seizure frequency compared with placebo” value [2, 21] was “significantly greater reduction”, the “reduction in both drop and total seizure frequency compared with placebo” value ([2]; topiramate treatment failures, both doses (10 and 20 mg/kg/day)) was “significantly greater reduction” and the “proportion of patients with a 50% reduction in drop seizure frequency compared with placebo” value ([2]; topiramate treatment failures, both doses, statistical significance for 20 mg/kg/day, only marginal for 10 mg/kg/day) was “greater proportion”.
